In patent publication US20260250318A1, “COMPOSITIONS AND METHODS FOR CROSSING THE BLOOD BRAIN BARRIER” (VOYAGER THERAPEUTICS, INC., priority 2022, published 2026):

Columns and labels:
brain = assay: Matured TTM-001 and TTM-002 variants, NGS enrichment in mouse brain; format: in vivo, mice; settings: relative to AAV9 control
[1] = system: brains, heart, liver, muscle, and DRG of the NHPs; assay: Maturation of TTM-001 and TTM-002 capsids, NGS enrichment in NHP tissues; format: in vivo; settings: relative to AAV9 control
Procedure, shortened: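 Variants carry mutations within and flanking the loop IV peptide insert: positions 450–466 were triplet-randomized, while positions 449–466 received low-frequency point mutations. The combined pool went into two NHPs, and each peptide was scored by NGS enrichment ratio against AAV9.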

[2] = NGS fold-enrichment, mouse brain
[3] = NGS fold-enrichment of RNA, NHP brain
[4] = NGS fold-enrichment, NHP liver DNA
[5] = NGS fold-enrichment, NHP liver RNA
[6] = NGS fold-enrichment, NHP muscle
[7] = NGS fold-enrichment, brain of mice
[8] = NGS fold-enrichment, DRG of NHPs
[9] = NGS fold-enrichment, RNA, brain of NHPs
[10] = NGS fold-enrichment, heart of NHPs
[11] = NGS fold-enrichment, liver DNA of NHPs
[12] = NGS fold-enrichment, liver RNA of NHPs
[13] = NGS fold-enrichment, muscle of NHPs
[14] = NGS fold-enrichment of matured AAV capsid variants, NHP brain, RNA

| Sequence | Fold Enrichment relative to AAV9, Brain (Mouse) (brain; [2]) | Fold Enrichment relative to AAV9, Brain (NHP) [1, 3] | Fold Enrichment relative to AAV9, DRG (NHP) ([1]; NGS fold-enrichment, NHP DRG) | Fold Enrichment relative to AAV9, Heart (NHP) ([1]; NGS fold-enrichment, NHP heart) | Fold Enrichment relative to AAV9, Liver DNA (NHP) [1, 4] | Fold Enrichment relative to AAV9, Liver RNA (NHP) [1, 5] | Fold Enrichment relative to AAV9, Muscle (NHP) [1, 6] | Fold Enrichment relative to AAV9, Brain (Mouse) (brain; [7]) | Fold Enrichment relative to AAV9, DRG (NHP) [1, 8] | Fold Enrichment relative to AAV9, Brain (NHP) [1, 9] | Fold Enrichment relative to AAV9, Heart (NHP) [1, 10] | Fold Enrichment relative to AAV9, Liver DNA (NHP) [1, 11] | Fold Enrichment relative to AAV9, Liver RNA (NHP) [1, 12] | Fold Enrichment relative to AAV9, Muscle (NHP) [1, 13] | Fold Enrichment relative to AAV9, Brain (Mouse) (brain; mouse brain) | Fold Enrichment relative to AAV9, Brain (NHP) [1, 14] | Fold Enrichment relative to AAV9, DRG (NHP) ([1]; NHP DRG) | Fold Enrichment relative to AAV9, Heart (NHP) ([1]; NHP heart) | Fold Enrichment relative to AAV9, Liver DNA (NHP) ([1]; NHP liver, DNA) | Fold Enrichment relative to AAV9, Liver RNA (NHP) ([1]; NHP liver, RNA) | also measured |
| --- | --- | --- | --- | --- | --- | --- | --- | --- | --- | --- | --- | --- | --- | --- | --- | --- | --- | --- | --- | --- | --- |
| KTFNRSGSPHSKAQNQQI | 25.568 fold | 86.359 fold | 0.000 fold | 113.67 fold | 0.092 fold | 0.000 fold | 0.000 fold | – | – | – | – | – | – | – | – | – | – | – | – | – | – |
| KTFPGSGSPHSKVQNQQT | 97.703 fold | 199.720 fold | 0.000 fold | 0.000 fold | 0.967 fold | 0.000 fold | 0.000 fold | 97.703 fold | 0.000 fold | 199.720 fold | 0.000 fold | 0.967 fold | 0.000 fold | 0.000 fold | – | – | – | – | – | – | – |
| KTFSGSGSPHSKAQNLQT | – | – | – | – | – | – | – | 70.917 fold | 0.000 fold | 70.035 fold | 0.327 fold | 0.228 fold | 0.000 fold | 0.303 fold | – | – | – | – | – | – | – |
| KTGNGSGSPHSKAQIQQT | – | – | – | – | – | – | – | – | – | – | – | – | – | – | 98.291 fold | 52.809 fold | 0.000 fold | 0.000 fold | 0.012 fold | 0.000 fold | Fold Enrichment relative to AAV9, Muscle (NHP) ([1]; NHP muscle): 0.000 fold |
| KTIDGGGSPHSKAQNKQT | 55.517 fold | 85.019 fold | 0.000 fold | 0.000 fold | 0.477 fold | 0.000 fold | 0.000 fold | 55.517 fold | 0.000 fold | 85.019 fold | 0.000 fold | 0.477 fold | 0.000 fold | 0.000 fold | – | – | – | – | – | – | – |
| KTIDGHDSPHKSGQNQHA | 10.781 fold | 91.058 fold | 0.000 fold | 0.082 fold | 0.000 fold | 0.000 fold | 0.000 fold | – | – | – | – | – | – | – | – | – | – | – | – | – | – |
| KTIDGHDSPHKSGRNQQI | 10.363 fold | 80.240 fold | 0.000 fold | 0.037 fold | 0.144 fold | 0.040 fold | 0.000 fold | – | – | – | – | – | – | – | – | – | – | – | – | – | – |
| KTIDGSGSPHSKALNKQT | – | – | – | – | – | – | – | – | – | – | – | – | – | – | 74.626 fold | 58.992 fold | 0.000 fold | 0.267 fold | 0.056 fold | 0.000 fold | Fold Enrichment relative to AAV9, Muscle (NHP) ([1]; NHP muscle): 0.000 fold |
| KTIDGSGSPHSKAQNQQH | 57.914 fold | 79.090 fold | 0.000 fold | 0.000 fold | 0.049 fold | 0.136 fold | 0.000 fold | 57.914 fold | 0.000 fold | 79.090 fold | 0.000 fold | 0.049 fold | 0.136 fold | 0.000 fold | – | – | – | – | – | – | – |
| KTIDGSGSPHSKGQNRQT | – | – | – | – | – | – | – | 63.626 fold | 0.000 fold | 73.930 fold | 0.000 fold | 0.091 fold | 0.106 fold | 0.000 fold | – | – | – | – | – | – | – |
| KTIDGSGSPHSKSQNHQT | – | – | – | – | – | – | – | – | – | – | – | – | – | – | 63.174 fold | 51.307 fold | 0.000 fold | 0.000 fold | 0.269 fold | 0.000 fold | Fold Enrichment relative to AAV9, Muscle (NHP) ([1]; NHP muscle): 0.000 fold |
| KTIEGHDSPHKSGRNQQT | 7.818 fold | 75.838 fold | 0.000 fold | 0.065 fold | 0.079 fold | 0.000 fold | 0.017 fold | – | – | – | – | – | – | – | – | – | – | – | – | – | – |
| KTIIGGGSPHSKAHNQQT | 65.492 fold | 75.872 fold | 0.000 fold | 0.050 fold | 0.235 fold | 0.000 fold | 0.000 fold | 65.492 fold | 0.000 fold | 75.872 fold | 0.050 fold | 0.235 fold | 0.000 fold | 0.000 fold | – | – | – | – | – | – | – |
| KTIIGGGSPHSKAQNPQT | – | – | – | – | – | – | – | – | – | – | – | – | – | – | 53.992 fold | 58.924 fold | 0.000 fold | 0.202 fold | 0.126 fold | 0.000 fold | Fold Enrichment relative to AAV9, Muscle (NHP) ([1]; NHP muscle): 0.000 fold |
| KTIIGSGSPHSKAQDRQT | – | – | – | – | – | – | – | – | – | – | – | – | – | – | 53.981 fold | 58.258 fold | 1.393 fold | 0.230 fold | 0.045 fold | 0.000 fold | Fold Enrichment relative to AAV9, Muscle (NHP) ([1]; NHP muscle): 0.219 fold |
